From US9732094B2, “Arylquinazolines” (Merck Patent GmbH, priority 2013, dated 2017)

Legend:
DNA-PK = DNA-PK (Homo sapiens (Human), UniProt P78527); assay: DNA-PK assay (biochemical), flashplate 33P-ATP kinase assay; conditions: biochemical DNA-PK assay
Outline: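 Radiometric kinase reaction in streptavidin-coated flashplates, stopped with 200 mM EDTA, then 30 min room-temperature incubation and saline washes.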

[1] = target: DNA-PK phosphorylation at serine 2056 (Homo sapiens (Human), UniProt P78527); assay: DNA-PK phosphorylation at serine 2056 (cellular), bleomycin-treated HCT116 cells, ELISA; type: cell-based; conditions: cellular DNA-PK phosphorylation at serine 2056, HCT116; read-out: IC50 pDNA-PK
Outline: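 Chemiluminescent ELISA quantified DNA-PK Ser2056 phosphorylation relative to total DNA-PKcs in HCT116 cells. Cells received compounds together with 10 μM bleomycin for 6 h; DMSO served as blank.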

Kv11.1 (hERG) = Kv11.1 (hERG) (Homo sapiens (Human), UniProt Q12809); assay: Kv11.1 ion channel binding assay (Predictor hERG fluorescence polarisation); conditions: cells marked *: measured using hERG binding assay instead of hERG patch clamp assay; read-out: Ki [Kv1.11 hERG]
Kv11.1 (hERG), sequence (Q12809 whole entry): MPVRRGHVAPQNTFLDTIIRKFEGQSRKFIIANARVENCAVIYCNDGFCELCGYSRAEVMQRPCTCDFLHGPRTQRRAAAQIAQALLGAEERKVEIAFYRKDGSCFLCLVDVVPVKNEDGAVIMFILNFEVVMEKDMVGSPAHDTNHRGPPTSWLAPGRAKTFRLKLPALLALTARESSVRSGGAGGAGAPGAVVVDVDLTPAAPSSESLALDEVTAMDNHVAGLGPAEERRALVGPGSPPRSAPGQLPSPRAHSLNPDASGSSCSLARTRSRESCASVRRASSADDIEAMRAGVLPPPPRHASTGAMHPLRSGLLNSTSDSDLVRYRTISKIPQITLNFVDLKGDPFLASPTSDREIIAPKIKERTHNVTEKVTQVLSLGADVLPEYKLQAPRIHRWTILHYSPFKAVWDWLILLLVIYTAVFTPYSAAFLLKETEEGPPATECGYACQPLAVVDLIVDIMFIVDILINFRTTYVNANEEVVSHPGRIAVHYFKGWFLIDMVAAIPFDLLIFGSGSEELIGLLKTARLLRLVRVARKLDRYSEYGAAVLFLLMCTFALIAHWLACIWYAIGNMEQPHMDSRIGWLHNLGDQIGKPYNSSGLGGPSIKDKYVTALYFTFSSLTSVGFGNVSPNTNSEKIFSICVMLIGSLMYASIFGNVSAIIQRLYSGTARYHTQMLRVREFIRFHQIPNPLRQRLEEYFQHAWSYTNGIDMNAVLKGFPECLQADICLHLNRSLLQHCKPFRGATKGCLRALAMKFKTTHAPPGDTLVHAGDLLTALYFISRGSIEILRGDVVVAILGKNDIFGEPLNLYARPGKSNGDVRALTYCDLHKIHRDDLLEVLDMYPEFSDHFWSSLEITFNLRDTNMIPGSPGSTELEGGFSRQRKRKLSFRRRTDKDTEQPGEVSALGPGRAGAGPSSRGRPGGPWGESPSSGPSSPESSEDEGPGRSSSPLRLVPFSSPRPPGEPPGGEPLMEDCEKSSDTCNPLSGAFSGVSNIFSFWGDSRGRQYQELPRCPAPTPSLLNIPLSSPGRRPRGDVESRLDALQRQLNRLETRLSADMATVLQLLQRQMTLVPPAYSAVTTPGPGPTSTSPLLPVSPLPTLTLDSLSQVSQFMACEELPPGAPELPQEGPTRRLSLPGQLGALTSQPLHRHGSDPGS
Experimental: D) Kv11.1 Ion Channel Binding Assay
Kv11.1 (hERG=human ether a go-go related […]) is a cardiac K^+ channel which should if possible not interact with the test substances. This interaction is determined quantitatively with the aid of the Predictor™ hERG Fluorescence Polarizations (FP) Assays from Life Technologies. In the case of this assay principle, cardiomyocyte cell membranes having a certain proportion of Kv11.1 channels are isolated. A dye-labelled Kv11.1 binding partner gives a high fluorescence polarisation signal by interaction with the Kv11.1. In the case of displacement of the dye, a reduction in the fluorescence polarisation signal occurs.
The assay is carried out automatically as follows: 15 nl of the test substances (highest concentration: 10 mM, 10 concentrations: dilution factors 1:3.16, DMSO) are transferred into an empty microtitre plates having 384 wells by means of an acoustic pipetter. 3 μl of the isolated membranes are subsequently added. Membranes and test substances are incubated at 22° C. for 15 min (+/−5 min). In the next step, the dye-labelled binding partner is added, followed by incubation at 22° C. After incubation for two hours, the measurement of the fluorescence polarisation is carried out on an Envision multimode Reader. Measured raw data are standardised with the aid of Genedata Assay Analyzer. The 1050 and % effect values are calculated in Genedata Condoseo.

IC50 (DNA-PK) [nM]	IC50 [1] [nM]	Compound	Ki (Kv11.1 (hERG)) [nM]
< 3	< 500	Cn1cnc2ccnc(C(O)c3ccc(F)c(-c4ncnc5cc(N6CCOCC6)ccc45)c3)c21 (stereo not drawn) [Example 461, [4-Fluoro-3-(7-morpholin-4-yl-quinazolin-4-yl)-phenyl]-(3-methyl-3H-imidazo[4,5-c]-pyridin-4-yl)methanol]	> 25000
3 to 7	500 to 5000	Cc1nccnc1[C@@H](O)c1ccc(F)c(-c2ncnc3cc(N4CCOCC4)cc(F)c23)c1 [Example 251, (S)-[4-fluoro-3-(5-fluoro-7-morpholin-4-ylquinazolin-4-yl)-phenyl]-(3-methyl-pyrazin-2-yl)-methanol]	> 25000
7 to 30	10000 to 30000	CNC(=O)C(c1cc(-c2ncnc3cc(N4CCOCC4)ccc23)c(F)cc1Cl)c1nccnc1C (stereo not drawn) [Example 254, 2-[2-Chloro-4-fluoro-5-(7-morpholin-4-yl-quinazolin-4-yl)-phenyl]-N-methyl-2-(3-methyl-pyrazin-2-yl)acetamide]	> 25000
3 to 7	10000 to 30000	NC(=O)C(c1ccc(F)c(-c2ncnc3cc(N4CCOCC4)ccc23)c1)c1nncc2ccsc12 (stereo not drawn) [Example 284, 2-[4-Fluoro-3-(7-morpholin-4-yl-quinazolin-4-yl)-phenyl]-2-thieno-[2,3-d}pyridazin-7-yl-acetamide]	> 25000
< 3	< 500	COc1nccnc1C(O)c1cc(-c2ncnc3cc(N4CCOCC4)cc(F)c23)c(F)cc1Cl (stereo not drawn) [Example 249, [2-Chloro-4-fluoro-5-(5-fluoro-7-morpholin-4-yl-quinazolin-4-yl)-phenyl]-(3-methoxy-pyrazin-2-yl)-methanol]	> 25000
3 to 7	500 to 5000	Cc1nccnc1C(O)c1ccc(F)c(-c2ncnc3cc(N4CCOCC4)sc23)c1 (stereo not drawn) [Example 246, [4-Fluoro-3-(6-morpholin-4-yl-thieno[3,2-d}-pyrimidin-4-yl)-phenyl]-(3-methyl-pyrazin-2-yl)-methanol]	> 25000
> 30	10000 to 30000	COc1ccc(C(O)c2ccc(F)c(-c3ncnc4cc(N5CCOCC5)c(F)cc34)c2)nn1 (stereo not drawn) [Example 282, [4-Fluoro-3-(6-fluoro-7-morpholin-4-yl-quinazolin-4-yl)-phenyl]-(6-methoxy-pyridazin-3-yl)-methanol]	> 25000
< 3	< 500	Cc1nccnc1C(O)c1cc(-c2ncnc3cc(N4CCOCC4)sc23)c(F)cc1Cl (stereo not drawn) [Example 264, [2-Chloro-4-fluoro-5-(6-morpholin-4-yl-thieno[3,2-d}-pyrimidin-4-yl)-phenyl]-(3-methyl-pyrazin-2-yl)-methanol]	> 25000
< 3	< 500	Fc1cc(Cl)c(Cc2ccc3nccn3n2)cc1-c1ncnc2cc(N3CCOCC3)ccc12 [Example 235, 4-(4-Chloro-2-fluoro-5-imidazo[1,2-b]-pyridazin-6-ylmethyl - phenyl)-7-morpholin-4-ylquinazoline]	> 25000
3 to 7	500 to 5000	OC(c1ccc(F)c(-c2ncnc3cc(N4CCOCC4)ccc23)c1)c1ncnc2ccoc12 (stereo not drawn) [Example 443, [4-fluoro-3-(7-morpholin-4-yl-quinazolin-4-yl)-phenyl]furo[3,2-d}-pyrimidin-4-yl-methanol]	> 25000
3 to 7	5000 to 10000	OC(c1ccc(F)c(-c2ncnc3cc(N4CCOCC4)ccc23)c1)c1nccn2ncnc12 (stereo not drawn) [Example 279, [4-Fluoro-3-(7-morpholin-4-yl-quinazolin-4-yl)-phenyl]-[1,2,4]-triazolo[1,5-a]-pyrazin-8-ylmethanol]	> 25000
< 3	< 500	Cc1nccnc1C(O)c1ccc(F)c(-c2ncnc3cc(N4CCOCC4)sc23)c1 (stereo not drawn) [Example 265, [4-Fluoro-3-(6-morpholin-4-yl-thieno[3,2-d}-pyrimidin-4-yl)-phenyl]-(3-methyl-pyrazin-2-yl)-methanol]	> 25000
3 to 7	< 500	COc1ccc(C(O)c2cc(-c3ncnc4cc(N5CCOCC5)ccc34)ccc2Cl)nn1 (stereo not drawn) [Example 460, [2-Chloro-5-(7-morpholin-4-yl-quinazolin-4-yl)-phenyl]-(6-methoxy-pyridazin-3-yl)-methanol]	> 25000
< 3	< 500	COc1nccnc1C(O)c1ccc(F)c(-c2ncnc3cc(N4CCOCC4)cc(F)c23)c1 (stereo not drawn) [Example 267, [4-Fluoro-3-(5-fluoro-7-morpholin-4-yl-quinazolin-4-yl)-phenyl]-(3-methoxy-pytazin-2-yl)-methanol]	> 25000
< 3	< 500	COc1nccnc1C(O)c1ccc(F)c(-c2ncnc3cc(N4CCOCC4)cc(F)c23)c1 (single isomer, unassigned) [Example 252, [4-Fluoro-3-(5-fluoro-7-morpholin-4-yl-quinazolin-4-yl)-phenyl]-(3-methoxy-pyrazin-2-yl)-methanol]	> 25000
< 3	< 500	OC(c1ccc(F)c(-c2ncnc3cc(N4CCOCC4)ccc23)c1)c1ncnc2ccoc12 (stereo not drawn) [Example 471, [4-Fluoro-3-(7-morpholin-4-yl-quinazolin-4-yl)-phenyl]furo[3,2-d}-pyrimidin-4-yl-methanol]	> 25000
3 to 7	500 to 5000	Cc1nccnc1C(C(N)=O)c1cc(-c2ncnc3cc(N4CCOCC4)sc23)c(F)cc1Cl (stereo not drawn) [Example 269, 2-[2-Chloro-4-fluoro-5-(6-morpholin-4-yl-thieno[3,2-d}-pyrimidin-4-yl)-phenyl]-2-(3-methyl-pyrazin-2-yl)-acetamide]	> 25000
3 to 7	5000 to 10000	Cc1nccnc1C(C(N)=O)c1ccc(F)c(-c2ncnc3cc(N4CCOCC4)sc23)c1 (stereo not drawn) [Example 270, 2-[4-Fluoro-3-(6-morpholin-4-yl-thieno[3,2-d}-pyrimidin-4-yl)-phenyl]-2-(3-methyl-pyrazin-2-yl)-acetamide]	> 25000
7 to 30	10000 to 30000	NC(=O)C(c1ccc(F)c(-c2ncnc3cc(N4CCOCC4)ccc23)c1)c1nccn2ncnc12 (stereo not drawn) [Example 280, 2-[4-Fluoro-3-(7-morpholin-4-yl-quinazolin-4-yl)-phenyl]-2-[1,2,4]-triazolo[1,5-a]-pyrazin-8-yl-acetamide]	> 25000
7 to 30	10000 to 30000	COc1ccc(C(O)c2cc(-c3ncnc4cc(N5CCOCC5)cc(F)c34)c(F)cc2Cl)nn1 (single isomer, unassigned) [Example 263, [2-Chloro-4-fluoro-5-(5-fluoro-7-morpholin-4-yl-quinazolin-4-yl)-phenyl]-(6-methoxy-pyridazin-3-yl)-methanol]	> 25000
7 to 30	5000 to 10000	CN1N=C(C(O)c2cc(-c3ncnc4cc(N5CCOCC5)ccc34)c(F)cc2Cl)CCC1=O (stereo not drawn) [Example 288, 6-{[2-Chloro-4-fluoro-5-(7-morpholin-4-yl-quinazolin-4-yl)-phenyl]hydroxy-methyl}-2-methyl-4,5-dihydro-2H-pyridazin-3-one]	> 25000

Compound	IC50 (DNA-PK) [nM]	IC50 [1] [nM]	Ki (Kv11.1 (hERG)) [nM]
COc1ccc(C(O)c2ccc(F)c(-c3ncnc4cc(N5CCOCC5)cc(F)c34)c2)nn1 (stereo not drawn) [Example 256, [4-Fluoro-3-(5-fluoro-7-morpholin-4-yl-quinazolin-4-yl)-phenyl]-(6-methoxy-pyridazin-3-yl)-methanol]	< 3	< 500	> 25000
COc1ccc(C(O)c2ccc(F)c(-c3ncnc4cc(N5CCOCC5)cc(F)c34)c2)nn1 (stereo not drawn) [Example 255, [4-Fluoro-3-(5-fluoro-7-morpholin-4-yl-quinazolin-4-yl)-phenyl]-(6-methoxy-pyridazin-3-yl)-methanol]	7 to 30	< 500	> 25000
[2H]C1([2H])OC([2H])([2H])C([2H])([2H])N(c2ccc3c(-c4cc(C(O)c5nccnc5OC)c(Cl)cc4F)ncnc3c2)C1([2H])[2H] (stereo not drawn) [Example 258, [2-Chloro-4-fluoro-5-[7-(2,2,3,3,5,5,6,6-octadeutenomorpholin-4-yl)quinazolin-4-yl]phenyl]-(3-methoxypyrazin-2-yl)methanol]	3 to 7	< 500	> 25000
[2H]C1([2H])OC([2H])([2H])C([2H])([2H])N(c2ccc3c(-c4cc(C(O)c5nccnc5C)ccc4F)ncnc3c2)C1([2H])[2H] (stereo not drawn) [Example 259, [4-Fluoro-3-[7-(2.2,3,3,5,5,6,6-octadeuteriomorpholin-4-yl)quinazolin-4-yl]phenyl]-(3-methyl-pyrazin-2-yl)-methanol]	< 3	< 500	> 25000
